Legend:
Type in all cases: cell-based
hBGT1 [1] = biological target: T1, hBGT1 (Homo sapiens, UniProt P48065); assay: hBGT1 competition uptake assay (inhibition of 3H-GABA uptake); parameters: expressed in transfected cells; host or cells: HEK-TREx cells (HEK-TREx-BGT1 inducible line), induced with tetracycline/doxycycline and butyrate; settings: HEK-TREx-BGT1 cells induced to express BGT1; FIG. 2
T1 sequence (P48065 1-614): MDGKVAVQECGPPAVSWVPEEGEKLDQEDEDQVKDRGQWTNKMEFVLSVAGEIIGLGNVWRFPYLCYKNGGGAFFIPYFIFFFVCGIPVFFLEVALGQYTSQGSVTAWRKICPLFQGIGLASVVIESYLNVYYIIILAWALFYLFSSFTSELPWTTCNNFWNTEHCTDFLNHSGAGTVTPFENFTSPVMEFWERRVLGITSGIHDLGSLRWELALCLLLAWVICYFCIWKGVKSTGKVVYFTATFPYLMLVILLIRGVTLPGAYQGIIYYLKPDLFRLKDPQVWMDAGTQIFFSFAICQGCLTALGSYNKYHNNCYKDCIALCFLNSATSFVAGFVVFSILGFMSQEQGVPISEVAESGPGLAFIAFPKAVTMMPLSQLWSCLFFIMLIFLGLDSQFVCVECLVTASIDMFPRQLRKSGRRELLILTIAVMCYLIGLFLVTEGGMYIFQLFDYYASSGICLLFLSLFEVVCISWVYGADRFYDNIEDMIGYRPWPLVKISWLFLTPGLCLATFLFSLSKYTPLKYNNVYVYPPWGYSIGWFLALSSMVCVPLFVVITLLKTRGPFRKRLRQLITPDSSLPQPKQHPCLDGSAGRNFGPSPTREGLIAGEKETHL
Experimental: Alternatively, cells were washed manually with equivalent volumes using a multichannel pipettor.
Non-specific uptake was determined by measuring the uptake into cells not induced to express the transporter (“no tet”).

hBGT1 [2] = biological target: T1, hBGT1; assay: hBGT1 direct uptake assay (LC-MS-MS); parameters: expressed in transfected cells; host or cells: HEK-TREx cells (HEK-TREx-BGT1 inducible line), induced with tetracycline/doxycycline and butyrate; settings: HEK-TREx-hBGT1 cells induced to express hBGT1
Experimental: Four concentrations (bracketing the affinity as measured by competition assays) per compound were routinely tested. Non-specific uptake was determined by measuring the uptake into cells not induced to express the transporter (“no tet”).
Typically, four concentrations bracketing the IC50 were tested. […] The samples were robustly vortexed and centrifuged for 10 minutes at 13,200 rpm to spin down any precipitate. […] Three additional 2-fold dilutions were made in the subsequent rows (B-D or […]) in HBSS.
An internal standard of 50 μM propranolol in 50:50 ethanol:water was also prepared.
The cells were washed twice in room temperature HBSS (100 μl/well/wash) using a 96-well plate washer (Bio Tek ELX405). Alternatively, cells were washed manually with equivalent volumes using a multichannel pipettor. Immediately before the assay was begun, the final 100 μl wash solution was removed from the cells.
After the final wash, as much of the wash buffer as possible was removed by aspirating the wells with a probe that reached the bottom of the wells. (Residual salts from the wash buffer can adversely affect the LC-MS-MS by disrupting the LC method or by suppressing the MS signal.) 150 μl of a 50:50 ethanol:water solution was added to each well to lyse the cells and extract the test compound. The plate was covered and allowed to sit for 20 minutes at room temperature to ensure cell lysis. […]

hBGT1 [3] = biological target: T1, hBGT1; assay: Oocyte uptake assay with BGT1 cRNA-injected Xenopus oocytes; parameters: expressed in transfected cells; host or cells: Xenopus oocytes injected with in vitro transcribed BGT1 cRNA; settings: oocytes expressing BGT1 protein
Experimental: For expression in Xenopus oocytes, in vitro BGT1 cRNA is prepared and injected into defoliculated oocytes.
To measure directly the uptake of possible substrates, an oocyte uptake assay is performed in which uptake of compounds is measured by mass spectroscopy. […] Oocytes injected with BGT1 cRNA are incubated at 16-18° C. until maximal transporter expression is reached. Oocytes from the same batch, not injected with cRNA, can be used as a control. […] Subpools are homogenized in 150 μl of ice cold 80% MeOH/H2O and lysed manually.

Row | Direct Uptake Vmax (hBGT1 [2]) [pmol/min/well] | SMILES | Effect of unlabeled competitor on uptake of labeled GABA (hBGT1 [1]) | 3H-GABA uptake versus noninjected controls (hBGT1 [3])
1 | 110 | NCCCC(=O)O [GABA, γ-aminobutyric acid] | the uptake of labeled GABA decreased as the concentration of unlabeled GABA increased | –
2 | – | NCCCC(=O)O [^3H-GABA] | – | higher levels of ^3H-GABA uptake than noninjected controls

— patent US7704695B2, “Screening of compounds for BGT1 transporter activity” (XenoPort, Inc., priority 2005, dated 2010)
